Like-named read-outs stand apart in the source and are kept apart here.
Experiments:
S. mansoni TGR [1] = target: T1, S. mansoni TGR (Schistosoma mansoni, UniProt Q962Y6); experiment: biochemical
T1 construct: made in house; host or cells: E. coli
T1 sequence (Q962Y6 1-598): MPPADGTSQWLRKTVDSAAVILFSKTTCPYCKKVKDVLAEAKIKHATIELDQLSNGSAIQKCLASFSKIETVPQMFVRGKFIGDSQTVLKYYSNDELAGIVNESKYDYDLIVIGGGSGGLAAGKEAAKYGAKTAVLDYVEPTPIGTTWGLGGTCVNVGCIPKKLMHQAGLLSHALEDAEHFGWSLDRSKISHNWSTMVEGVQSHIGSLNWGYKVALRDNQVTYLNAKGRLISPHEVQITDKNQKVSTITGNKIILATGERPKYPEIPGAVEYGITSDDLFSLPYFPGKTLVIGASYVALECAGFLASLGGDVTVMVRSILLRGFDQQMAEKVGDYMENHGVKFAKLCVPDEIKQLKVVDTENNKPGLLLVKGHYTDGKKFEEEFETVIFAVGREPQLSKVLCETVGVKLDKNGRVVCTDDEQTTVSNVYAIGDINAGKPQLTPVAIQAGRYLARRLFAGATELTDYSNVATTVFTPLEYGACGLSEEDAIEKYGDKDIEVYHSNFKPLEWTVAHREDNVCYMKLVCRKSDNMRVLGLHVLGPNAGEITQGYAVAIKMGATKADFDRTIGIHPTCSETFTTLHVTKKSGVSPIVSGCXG
Description: Enzymes were prepared in E. coli as described. Assays were performed at 25 °C in 0.1 M potassium phosphate (pH 7.4), 10 mM EDTA using 100 μM NADPH and 3 mM dithiobis(2-nitrobenzoic acid) (DTNB). […] The increase in A412 during the first 3 min was recorded upon DTNB addition. The reaction was done in triplicate.

[2] = test system: L. infantum MHOM/MA (BE)/67 amastigotes; experiment: Anti-leishmanial activity, L. infantum amastigotes in primary peritoneal mouse macrophages; format: cell-based, Leishmania infantum
Description: Anti-leishmanial activity: L. infantum MHOM/MA (BE)/67 amastigotes were collected from the spleen of an infected donor hamster and used to infect primary peritoneal mouse macrophages grown in a 96-well plate. After 2 days outgrowth, 5 × 10^5 amastigotes were added to each well and incubated for 2 h at 37 °C. The compounds were subsequently added and the plates were further incubated for 5 days at 37 °C and 5% CO2. Parasite burdens (mean number of amastigotes/macrophage) were microscopically assessed on 500 cells after Giemsa staining and expressed as a percentage of the blank controls. Miltefosine was included as reference drug. The use of laboratory rodents was carried out in accordance to all mandatory guidelines (EU directives, including the Revised Directive 2010/63/EU on the Protection of Animals used for Scientific Purposes that came into force on 1 January 2013, and the declaration of Helsinki in its latest version) and was approved by the Ethical Committee of the University of Antwerp, Belgium [UA-ECD 2011–77 (17-02-2012 and UA-ECD 2015-90].

[3] = Cytotoxicity on RAW 264.7 macrophages; format: cell-based, murine; details: mouse, 48 h incubation, read-out: Cytotoxicity on RAW 264.7 Macrophages CC50 (µM) ± SD
Description: (§1) Cytotoxicity was evaluated on RAW 264.7 macrophages that were maintained at 37 °C with 5% CO2 in Dulbecco’s Modified Eagle’s Medium (DMEM, Invitrogen, Toulouse, France) supplemented with 100 U/mL penicillin-streptomycin (Invitrogen) and 10% heat-inactivated fetal bovine serum, as previously described. Briefly, cells were plated in 96-well microplates at a density of 2 × 10^4 cells per well. After incubation for 24 h at 37 °C in 5% CO2, the medium was removed from each well and 100 µL of medium containing 2-fold serial dilutions of compounds was added to each well. After 48 h incubation at 37 °C in 5% CO2, 10 µL of 450 µM resazurin was added to each well and further incubated in the dark for 4 h. Cell viability was determined as described above. The cytotoxicity of the compounds was expressed as CC50.

RAW 264.7 macrophages = experiment: Cytotoxicity on RAW 264.7 macrophages; format: cell-based, murine; details: 48 h incubation; 2880 min; read-out: Cytotoxicity on RAW 264.7 Macrophages CC50 (µM) ± SD
Description: as §1

[4] = Cytotoxicity on human fetal lung fibroblast MRC-5; details: human
Description: (§2) Toxicity in human fetal lung fibroblast (MRC-5) cell line and primary mouse macrophages (PMM) was assessed using a previously reported assay in 96-well microtiter plates. Tamoxifen and miltefosine were included as reference drugs (Table 10).
(§3) For MRC5SV2 or PMM cells, the assays were performed in 96-well microtiter plates, each well containing 10 µL of compound dilution and 190 µL of cell inoculum (3 × 10^4 cells/mL) as reported. Cell growth was compared to untreated controls (100% growth) and assay-media controls (0% growth). After three-day incubation, cell viability was assessed fluorometrically by adding resazurin [50 µL/well of a stock solution in phosphate buffer (50 µg/mL)], incubating for 4 h and measuring fluorescence (ex 550 nm, em 590 nm). The results are expressed as percentage reduction in cell growth as compared to untreated control wells. […] Tamoxifen was included as the reference drug.

[5] = Cytotoxicity on primary mouse macrophages (PMM); details: mouse
Description: as §2, §3

S. mansoni TGR [6] = target: T1, S. mansoni TGR; parameters: method as in PMID 17579510
S. mansoni TGR [7] = target: T1, S. mansoni TGR; parameters: method as in PMID 17579510; remark: listed apart in the source
S. mansoni TGR [8] = target: T1, S. mansoni TGR; parameters: method as in PMID 17579510; remark: listed apart in the source
[9] = 1–2 h after oral administration; cited from earlier work
Human TrxR [10] = details: 3 mM DTNB, read-out: IC50 Human TrxR, substrate DTNB, cited from earlier work
Human GR = details: read-out: IC50 Human GR, substrate GSSG, cited from earlier work
[11] = target: human thioredoxin reductase (TrxR); parameters: method as in PMID 9685351; details: cited from earlier work
T. cruzi Tulahuen CL2 = experiment: Anti-Chagas activity, T. cruzi on MRC-5 cells; format: cell-based; details: Trypanosoma cruzi, TULAHUEN, MRC5, 168 h; amastigotes, MRC-5 host cells, 7 days; read-out: Trypanosoma cruzi IC50 (µM) ± SD
Description: Anti-Chagas activity: T. cruzi Tulahuen CL2 (benznidazole-sensitive, LacZ-reporter strain) was maintained on MRC-5 cells in minimal essential medium (MEM) supplemented with […], 16.5 mM sodium hydrogen carbonate and 5% FCS. In the assay, 4 × 10^3 MRC-5 cells and 4 × 10^4 parasites were added to each well. After incubation at 37 °C for 7 days, parasite growth was assessed by adding the substrate chlorophenol red -D-galactopyranoside. The color reaction was read at 540 nm after 4 h and absorbance values were expressed as a percentage of the blank controls. Benznidazole was included as reference drug.

Human TrxR [12] = details: 20 µM substrate, after 10 min enzyme-NADPH-gold complex preincubation, read-out: IC50 Human TrxR, substrate hTrxC72S, cited from earlier work
[13] = test system: T. b. brucei Squib-427 strain; experiment: Anti-trypanosomal activity, T. b. brucei trypomastigotes (resazurin); format: cell-based, Trypanosoma brucei brucei; details: Trypanosoma brucei, 72 h
Description: (§4) Anti-trypanosomal activity: T. b. brucei Squib-427 strain (suramin-sensitive) and T. b. gambiense (ITMAP/1893) were cultured at 37 °C and 5% CO2 in HMI-9 medium supplemented with 10% FCS [90]. About 10^4 trypomastigotes/well were added to each well and parasite growth was assessed after 72 h at 37 °C by adding resazurin and reading at ex 550 nm, em 590 nm. Suramin was included as reference drug for T. b. brucei and pentamidine for T. b. gambiense.

[14] = test system: Leishmania donovani LV9 axenic amastigotes; experiment: L. donovani LV9 axenic amastigotes (resazurin); format: cell-based; details: Leishmania donovani; read-out: Leishmania donovani LV9 Axenic Amastigotes IC50 (µM) ± SD
Description: (§5) In vitro anti-leishmanial evaluation was perfomed on both axenic and intramacrophage L. donovani amastigotes as previously described. […] Briefly, compounds were distributed in 96-well plates using 2-fold dilutions in 100 µL PYG medium. A. castellanii trophozoites were added to each well at 5 × 10^4 amoeba/mL in 200 µL final volume. L. donovani axenic amastigotes were added to each well at 10^6 parasites/mL in 200 µL final volume. After 72 h incubation at 27 °C, 20 µL of 1 mM resazurin was added to each well and further incubated at 27 °C for 8 h for A. castellanii and for 24 h for L. donovani axenic amastigotes. In living cells, resazurin is reduced in resorufin. This conversion is monitored by measuring the absorbance at specific wavelengths of resorufin (570 nm) and resazurin (600 nm) using a microplate reader (Labsystems Multiskan MS, McLean, VA, USA). In this assay, the activity was expressed in IC50. Miltefosine and pentamidine were used as reference drugs. All experiments were performed in three independent experiments.

[15] = test system: Leishmania donovani LV9 intramacrophage amastigotes; experiment: L. donovani LV9 intramacrophage amastigotes; format: cell-based; details: Leishmania donovani; read-out: Leishmania Donovani LV9 Intramacrophage Amastigotes IC50 (µm) ± SD
Description: as §5

[16] = test system: Acanthamoeba castellanii ATCC 30010; experiment: Anti-acanthamoebal activity on A. castellanii trophozoites (resazurin); format: cell-based; details: ATCC30010, 72 h, read-out: Acanthamoeba castellanii ATCC 30010 IC50 (µM) ± SD
Description: as §5

[17] = test system: T. b. gambiense (ITMAP/1893); experiment: Anti-trypanosomal activity, T. b. gambiense trypomastigotes (resazurin); format: cell-based, Trypanosoma brucei gambiense; details: Trypanosoma brucei, GAMBIENSE, 72 h, read-out: T. b. gambiense IC50 (µM) ± SD
Description: as §4

CC[P](CC)(CC)=[Au][S][C@@H]1O[C@H](COC(C)=O)[C@@H](OC(C)=O)[C@H](OC(C)=O)[C@H]1OC(C)=O [Auranofin]
IC50 (S. mansoni TGR [1]): 1.1 nM
IC50 versus CC50 in the assays with mouse macrophages ([2]; L. infantum amastigotes, equal IC50 and CC50 values): non-specific activity
CC50 at 48 h ([3]; raw 264.7 macrophages): ~4 µM
CC50 (RAW 264.7 macrophages): 4.43 ± 0.08 µM
CC50 at 72 h ([4]; mrc-5 cells): 520 nM
CC50 at 72 h ([5]; primary macrophages): 2000 nM
IC50 (S. mansoni TGR [6]; read-out: IC50 S. mansoni TGR, substrate DTNB; 20 nM enzyme, 3 mM DTNB; after 15 min preincubation; cited from earlier work): 7 nM
IC50 (S. mansoni TGR [7]; read-out: IC50 S. mansoni TGR, substrate GSSG; 20 nM enzyme, 100 µM GSSG; after 15 min preincubation; cited from earlier work): 9 nM
IC50 (S. mansoni TGR [8]; read-out: IC50 S. mansoni TGR, substrate HED + GSSG; 20 nM enzyme, 8 mM substrate; after 15 min preincubation; cited from earlier work): 6 nM
drug remaining in the plasma [9]: 15–25%
plasma concentration [9]: 10000 ng/mL

OC[C@H]1O[C@H]([S-])[C@H](O)[C@@H](O)[C@@H]1O.[Au+] [Aurothioglucose]
IC50 (Human TrxR [10]; 2 nM enzyme, steady state kinetic studies): 65 nM
IC50 (Human GR; 1.5 nM enzyme, 1 mM GSSG, steady state kinetic studies): > 100000 nM
IC50 (S. mansoni TGR [6]; 20 nM enzyme, 3 mM DTNB; after 15 min preincubation; read-out: IC50 S. mansoni TGR, substrate DTNB; cited from earlier work): 70 nM
IC50 (S. mansoni TGR [7]; 20 nM enzyme, 100 µM GSSG; after 15 min preincubation; read-out: IC50 S. mansoni TGR, substrate GSSG; cited from earlier work): 3000 nM
IC50 (S. mansoni TGR [8]; 20 nM enzyme, 8 mM substrate; after 15 min preincubation; read-out: IC50 S. mansoni TGR, substrate HED + GSSG; cited from earlier work): 400 nM
Ki [11]: 4 nM

O=C(Cn1ccnc1[N+](=O)[O-])NCc1ccccc1 [Benznidazole, reference compound]
IC50 (T. cruzi Tulahuen CL2): 2.89 ± 0.94 µM

[Cl][Au][PH]1(c2ccccc2)C(c2ccccn2)=CC=C1c1ccccn1 [GoPI, {1-phenyl-2,5-di(2-pyridyl)phosphole}AuCl]
IC50 (Human TrxR [12]; 24 nM enzyme): 6.9 nM
IC50 (Human TrxR [12]; 30 nM enzyme): 7 nM
IC50 (Human TrxR [10]; 3.7 nM enzyme, after 10 min preincubation): 1 nM
IC50 (Human TrxR [10]; […] enzyme, after 10 min preincubation): 0.8 nM
IC50 (Human GR; 1.4-[…] enzyme, 100 µM GSSG, after 10 min preincubation): 2 nM
IC50 (Human GR; […] enzyme, 100 µM GSSG, after 10 min preincubation): 1 nM

CCCCCCCCCCCCCCCCOP(=O)([O-])OCC[N+](C)(C)C [Miltefosine]
IC50 [13]: 11400 nM
IC50 ([2]; Leishmania infantum, Macrophage, 120 h, amastigotes in primary peritoneal mouse macrophages, 5 days, read-out: Leishmania infantum IC50 (µM) ± SD): 11.3 ± 2.88 µM
IC50 [14]: 1.28 ± 0.12 µM
IC50 [15]: 4490 ± 1080 nM
IC50 [16]: 9.21 ± 2.04 µM
CC50 at 48 h ([3]; RAW 264.7 macrophages): > 25 µM
CC50 at 3 days [5]: 20000 nM

N=C(N)c1ccc(OCCCCCOc2ccc(C(=N)N)cc2)cc1 [Pentamidine]
IC50 [17]: 0.0011 ± 0.0001 µM
IC50 [16]: 1.39 ± 0.37 µM
CC50 at 48 h ([3]; RAW 264.7 macrophages): > 25 µM

Cc1ccc(C(=O)Nc2ccc(S(=O)(=O)O)c3cc(S(=O)(=O)O)cc(S(=O)(=O)O)c23)cc1NC(=O)c1cccc(NC(=O)Nc2cccc(C(=O)Nc3cc(C(=O)Nc4ccc(S(=O)(=O)O)c5cc(S(=O)(=O)O)cc(S(=O)(=O)O)c45)ccc3C)c2)c1 [Suramin]
IC50 [13]: 30 nM

CC/C(=C(\c1ccccc1)c1ccc(OCCN(C)C)cc1)c1ccccc1 [Tamoxifen]
CC50 at 3 days [4]: 10600 nM

— PMC7663263 (Molecules, 2020)
